Results: US8309790B2, “Animal models for demyelination disorders” (University of Chicago, priority 2005, dated 2012)
Where “and” joins values, the source holds several entries; their conditions need not be identical. Equal entries are not always repeated.

Experiments:
[1] = tested on: CNS of 14-day-old double transgenic mice; test: Ectopic expression of IFN-γ in the CNS during development (released from doxycycline at E14), PERK+/+ or PERK+/− background; assay type: in vivo
Excerpt: To study the effect of INF-γ on the myelination of oligodendrocytes during mouse development, transgenic mice that allow for temporally regulated delivery of IFN-γ to the CNS using the tetracycline (tet) controllable system (Lin, et al. (2004) J. Neurosci. 24: 10074-10083) were generated. To drive tTA expression in astrocytes, the transcriptional regulatory region of the glial fibrillary acidic protein (GFAP) gene was chosen (Brenner, et al. (1994) J. Neurosci. 14: 1030-1037). GFAP/tTA mice were mated with TRE/IFN-γ mice to produce animals hemizygous for both transgenes. When these mice are maintained on doxycycline (DOX+), expression of the IFN-γ transgene is repressed (FIG. 10A); when the double transgenic mice are released from doxycycline (DOX−) INF-γ is expressed. For the purpose of these experiments, mice received doxycycline up to day 14 of development (E14), at which time the experimental animals (DOX−) stopped receiving doxycycline, while the control animals (DOX+) were continuosly fed the dug. The mRNA for IFN-γ could be detected in the DOX− mice as early as 10 days after birth (data not shown).
Real time PCR analysis was performed to determine the levels of expression of INF-γ, MHC-1, BIP, CHOP, and caspase 12. The primers for the PCR reactions for BIP, CHP and caspase 12 are given in example 1. The sense and antisense primers for INF-γ were […] (SEQ ID NO: 39) and […] (SEQ ID NO: 40), respectively; and the sense and antisense primers for MHC-1 were MHC-I sense primer: ATTCCCCAAAGGCCCATGT (SEQ ID NO: 1); and MHC-I antisense primer: […] (SEQ ID NO: 2).
Western blot analysis was performed on the CNS of 14 day old mice to determine the expression of caspase-12 as described in Example 6.
Brain and spinal cord tissue were analyzed using immunohistochemical methods as follows. Anesthetized mice were perfused through the left cardiac ventricle with 4% paraformaldehyde in 0.1M PBS. The half-saggital brains and transcervical spinal cord were removed, postfixed with paraformaldehyde, cryopreserved in 30% sucrose, embedded in OCT and frozen on dry ice. Frozen sections were cut in a cryostat at a thickness of 10 μm. Coronal sections at the fornix region of the corpus callosum corresponding to Sidman sections 241-251 were selected for use, and all comparative analyses were restricted to midline corpus callosum (Sidman, et al. (1971) Atlas of the Mouse Brain and Spinal Cord (Harvard Univ. Press, Cambridge, Mass.). For immunohistochemistry, frozen sections were treated with −20° C. acetone, blocked with PBS containing 10% NGS and 0.1% Triton X-100 and incubated overnight with the primary antibody diluted in blocking solution. Appropriate fluorochrome- or enzyme-labeled secondary antibodies (Vector Laboratories, Burlingame, Calif.) were used for detection. An antibody against CC1 (APC7, 1:50; EMD Biosciences, Inc., La Jolla, Calif.) was used as a marker for mature oligodendrocytes. Antibody against MBP (1:1000; Stemberger Monoclonals, Lutherville, […].) was used to verify the degree of myelination. Antibody against active-caspase-3 (1:50, Cell signaling Technology, Beverly, Mass.) was used as a marker for apoptotic cells. Fluorescent stained sections were mounted with Vectashield mounting medium with DAPI (Vector Laboratories) and visualized with a Zeiss Axioplan fluorescence microscope. Images were captured using a Photometrics PXL CCD camera connected to an Apple Macintosh computer using the Open Lab software suite. Immunopositive cells were quantified by counting positive cells within the median of the corpus callosum, confined to an area of 0.04 mm^2. Only those cells with nuclei observable by DAPI staining were counted. Each MBP immunostaining slide was scored on a scale of zero to four. A score of zero indicates complete demyelination, and a score of four indicates normal myelination in the corpus callosum of adult mice. […]

mice with EAE = test: EAE, CNS delivery of INF-γ at the onset of EAE, double (PERK+/+) and triple (PERK+/−) mice; assay type: in vivo; conditions: for Mean of maximum clinical score (mean ± S.D.): 0-5 point scale; for Day of onset of disease (PID: postimmunization day): n = 25; for expression of iNOs, TNF-a, IL-2, IL-12 and IL-10 in the spinal cord: PID 14 (EAE onset), DOX− vs DOX+
[2] = CNS, PND 14, DOX− released at E14, real-time PCR

interferon-γ [IFN-γ]
caspase-12 expression ([1]; CNS, PND 14, DOX− released at E14): strongly enhanced | BIP expression [1, 2]: approximately 1.6 times the control levels | CHOP expression [1, 2]: ~2 times the control levels | mice that experienced tonic seizures ([1]; E14 DOX− PERK+/−): approximately two-thirds | decrease of oligodendrocyte numbers in the spinal cord ([1]; IFN-γ expressing mice on a PERK+/− background, 14-day-old, CC1): more than 50% | unmyelinated axons in the spinal cord ([1]; PERK+/− mice that express IFN-γ in the CNS, 14-day-old): 81%±14.9% | number of TUNEL positive oligodendrocytes in the cervical spinal cord, PERK+/− relative to wild-type background ([1]; released from doxycycline at E14): 2.5 times | mice that died by post natal day (PND) 27 ([1]; released from doxycycline at E14, PERK+/− background): more than 90% | survival ([1]; released from doxycycline at E14, wild-type background): normal survival | unmyelinated axons in the spinal cord ([1]; wild-type background, released from doxycycline at E14): 30%±12.9% | Mean of maximum clinical score (mean ± S.D.) (mice with EAE; DOX− double mice): 1.63 ± 0.51 | MBP mRNA in the spinal cord compared to age-matched naïve mice (mice with EAE; DOX− double mice, PID17, real-time PCR): not significantly decreased | Day of onset of disease (PID: postimmunization day) (mice with EAE; DOX− double mice): 14.7 ± 1.4 | Incidence of hind limb paralysis (mice with EAE; DOX− double mice, listed as INF-γ): 2 of 25 and 2/25 | Incidence of hind limb paralysis (mice with EAE; DOX− triple mice (PERK+/−)): 18/25 | Mean of maximum clinical score (mean ± S.D.) (mice with EAE; DOX− triple mice (PERK+/−)): 2.71 ± 1.11 | Day of onset of disease (PID: postimmunization day) (mice with EAE; DOX− triple mice (PERK+/−)): 13.6 ± 0.8 | expression of iNOs, TNF-a, IL-2, IL-12 and IL-10 in the spinal cord (mice with EAE): strongly enhanced | expression of iNOs, TNF-a, IL-2, IL-12 and IL-10 in the spinal cord (mice with EAE; listed as INF-γ): increased | expression of IL-2 and IL-5 in the spinal cord (mice with EAE; PID 14, DOX− vs DOX+): did not affect | CD3 positive T cell infiltration in the spinal cord (mice with EAE; at EAE onset): did not significantly affect | CD11b positive monocyte infiltration in the spinal cord (mice with EAE; at EAE onset): increased | CD11b positive monocyte infiltration (mice with EAE; at the peak of disease): did not change | expression of iNOs or TNF-γ (mice with EAE; at the peak of disease): did not significantly affect | EAE disease course (mice with EAE; mice heterozygous for the PERK mutation): did not ameliorate | PERK-eIF2α pathway in oligodendrocytes (p-PERK, p-eIF2α, CC1 colocalization) (mice with EAE; spinal cord, EAE onset): markedly activated
